In patent US20260265222A1, “1H-PYRROLE-2-AMIDE DERIVATIVE, PHARMACEUTICAL COMPOSITION AND METHOD FOR TREATING AND/OR PREVENTING YTHDC1-RELATED DISEASES” (priority 2023, published 2026):

These compounds were tested on leukaemia cell MOLM-13 (assay: Differentiation detection by flow cytometry (PE-CD11b, APC-CD14)). Conditions: MOLM-13, 0.5-2 μM, 5 days (FIG. 1c).
Type: cell-based
Description: To detect the effect of the small molecule YL-5092 on the differentiation of leukaemia cell MOLM-13, MOLM-13 cells were evenly seeded in 12-well plates and treated them with different concentration gradients of YL-5092 (0.5-2 μM) for 5 days. After collection, the cells were washed twice with ice-cold PBS, and 2 μL of PE-CD11b antibody and 2 μL of APC-CD14 antibody were added for incubation for 30 min, protected from light, then washed twice with ice-cold PBS, and finally analyzed on the flow cytometer.
With `O=C(Nc1ccc(-c2cncs2)cc1)c1cc(C(=O)c2ccccc2C(F)(F)F)c[nH]1` [Compound 29] the AML cell differentiation was “induce AML cell differentiation”.

The compounds below were run on leukaemia cell MOLM-13 (assay: Cell cycle detection by flow cytometry (PI)). Conditions: MOLM-13, 0.5-2 μM, 48 h (FIG. 1b).
Type: cell-based
Description: To detect the effect of the small molecule YL-5092 on the cell cycle of leukaemia cell MOLM-13, MOLM-13 cells were evenly seeded in 12-well plates and treated with different concentration gradients of YL-5092 (0.5-2 μM) for 48 h. After collection, the cells were washed once with ice-cold PBS and fixed with 70% ice-cold ethanol for 12 h. Before analysis on the flow cytometer, the cells were washed twice with ice-cold PBS and then incubated with PI reagent for 30 min, protected from light.
For `O=C(Nc1ccc(-c2cncs2)cc1)c1cc(C(=O)c2ccccc2C(F)(F)F)c[nH]1` [Compound 29], the “AML cell cycle arrest” value was “significantly induce AML cell cycle arrest in the G0/G1 phase”.

These compounds were tested on AML cells (MV4-11, HL-60, MOLM-13, THP-1, KG-1, U937, OCI-AML3) (assay: Detection of cell proliferation by MTT assay). Conditions: 72 h, range over the cell lines (FIG. 1a), read-out: IC50 values, inhibition of proliferation of AML cells.
Type: cell-based
Description: AML cells (MV4-11, HL-60, MOLM-13, THP-1, KG-1, U937, and OCI-AML3) were seeded in 96-well plates at 10,000-15,000 cells per well, and then a series of concentration gradients of YL-5092 (i.e., Compound 29) were added for culture for 72 h. 20 μL of MTT solution ([…]) was added to each well and incubated for 2-4 hours, followed by the addition of 50 μL of 20% SDS solution and incubation overnight to dissolve the formazan. The absorbance value was then read at 570 nm on a microplate reader, and the IC50 value of YL-5092 was calculated using GraphPad Prism 8.0.
Compound `O=C(Nc1ccc(-c2cncs2)cc1)c1cc(C(=O)c2ccccc2C(F)(F)F)c[nH]1` [Compound 29] has an IC50 of 280 to 2870 nM.

The compounds below were run against T1, GST-YTHDC1 (345-509) protein (Homo sapiens, UniProt Q96MU7) (assay: Fluorescence polarization-based in vitro enzyme-level test against YTHDC1). Conditions: 30 nM GST-YTHDC1 (345-509), FAM-labeled m6A-modified single-stranded oligonucleotide, 18° C., 4 hours; read-out: IC50 (Inhibitory Activity against YTHDC1).
T1 construct: GST-YTHDC1 (345-509) protein
Type: binding
Work on `O=C(Nc1ccc(-c2cncs2)cc1)c1cc(C(=O)c2ccccc2C(F)(F)F)c[nH]1` [Compound 29] yielded an IC50 of 7 nM.
`COC1CN(c2ccccc2C(=O)c2c[nH]c(C(=O)Nc3ccc(-c4cnco4)cc3)c2)C1` [Compound 131] was tested, and the IC50 was 35 nM.
`O=C(Nc1ccc(-c2cnco2)cc1)c1cc(C(=O)c2ccccc2N2CCCCC2)c[nH]1` [Compound 132] showed an IC50 of 14 nM.
`O=C(Nc1ccc2c(c1)CCN2c1ccccc1)c1cc(C(=O)c2ccccc2C(F)(F)F)c[nH]1` [Compound 133] showed an IC50 of 747 nM.
`O=C(Nc1ccc(-c2cnco2)cc1)c1cc(C(=O)c2ccccc2N2CC3CCC2CO3)c[nH]1` (stereo not shown) [Compound 134] showed an IC50 of 99 nM.
Compound `CCN1CCN(c2ccccc2C(=O)c2c[nH]c(C(=O)Nc3ccc(-c4cnco4)cc3)c2)CC1` [Compound 135] has an IC50 of 2820 nM.
With `O=C(Nc1ccc(-c2cnco2)cc1)c1cc(C(=O)c2ccccc2N2CCOC2=O)c[nH]1` [Compound 136] the IC50 was 28 nM.
With `O=C(Nc1ccc(-c2cnco2)cc1)c1cc(C(=O)c2ccccc2N2CCC(F)C2)c[nH]1` (stereo not shown) [Compound 137] the IC50 was 11 nM.
`O=C(Nc1ccc(-c2cnco2)cc1)c1cc(C(=O)c2ccccc2N2CCOCC2)c[nH]1` [Compound 138] showed an IC50 of 20 nM.
`CN1CCN(c2ccccc2C(=O)c2c[nH]c(C(=O)Nc3ccc(-c4cnco4)cc3)c2)CC1` [Compound 139] gave an IC50 of 1050 nM.
Compound `O=C(Nc1ccc(-c2cnco2)cc1)c1cc(C(=O)c2ccccc2N2CCCCCC2)c[nH]1` [Compound 140] has an IC50 of 134 nM.
Compound `O=C(Nc1ccc(-c2cnco2)cc1)c1cc(C(=O)c2ccccc2N2CCCCCCC2)c[nH]1` [Compound 141] has an IC50 of 189 nM.
Compound `O=C(Nc1ccc(-c2cnco2)cc1)c1cc(C(=O)c2ccccc2C2=CCCC2)c[nH]1` [Compound 142] has an IC50 of 25 nM.
`O=C(Nc1ccc(-c2cnco2)cc1)c1cc(C(=O)c2ccccc2CCCCO)c[nH]1` [Compound 143] was tested, and the IC50 was 9 nM.
`O=C(Nc1ccc(-c2cnco2)cc1)c1cc(C(=O)c2ccccc2N2CC3(CCC3)C2)c[nH]1` [Compound 144] gave an IC50 of 48 nM.
Work on `O=C(Nc1ccc(-c2cnco2)cc1)c1cc(C(=O)c2ccccc2C2=COCC2)c[nH]1` [Compound 145] yielded an IC50 of 39 nM.
With `O=C(Nc1ccc(-c2cnco2)cc1)c1cc(C(=O)c2ccccc2C2CCCC2)c[nH]1` [Compound 146] the IC50 was 21 nM.
`C[C@@H]1CN(c2ccccc2C(=O)c2c[nH]c(C(=O)Nc3ccc(-c4cnco4)cc3)c2)C[C@H](C)O1` [Compound 147] gave an IC50 of 190 nM.
`C[C@H]1CN(c2ccccc2C(=O)c2c[nH]c(C(=O)Nc3ccc(-c4cnco4)cc3)c2)CCO1` [Compound 148] was tested, and the IC50 was 66 nM.
Compound `C[C@H]1CN(c2ccccc2C(=O)c2c[nH]c(C(=O)Nc3ccc(-c4cnco4)cc3)c2)C[C@H](C)O1` [Compound 149] has an IC50 of 41 nM.
Compound `CC1(C)CN(c2ccccc2C(=O)c2c[nH]c(C(=O)Nc3ccc(-c4cnco4)cc3)c2)CCO1` [Compound 150] has an IC50 of 84 nM.
`O=C(Nc1ccc(-c2cnco2)cc1)c1cc(C(=O)c2ccccc2N2CCC(c3ccccc3)C2)c[nH]1` (stereo not shown) [Compound 151] showed an IC50 of 1560 nM.
`O=C(Nc1ccc(-c2cnco2)cc1)c1cc(C(=O)c2ccccc2-c2ccccc2)c[nH]1` [Compound 152] gave an IC50 of 14 nM.
With `O=C(Nc1ccc(-c2cnco2)cc1)c1cc(C(=O)c2ccccc2N2CC(F)C2)c[nH]1` [Compound 153] the IC50 was 14 nM.

The compounds below were run on leukaemia cells MOLM-13, MV4-11, THP-1, and U937 (assay: Apoptosis detection by flow cytometry (APC-Annexin V, 7-AAD)). Conditions: MOLM-13, MV4-11, THP-1, U937; 0.5-2 μM, 5 days (FIG. 1d).
Type: cell-based
Description: To detect the effect of the small molecule YL-5092 on the apoptosis of leukaemia cells MOLM-13, MV4-11, THP-1, and U937, MOLM-13, MV4-11, THP-1, and U937 cells were evenly seeded in 12-well plates and treated them with different concentration gradients of YL-5092 (0.5-2 μM) for 5 days. After collection, the cells were washed twice with ice-cold PBS, and 5 μL of APC-Annexin V antibody and 5 μL of 7-AAD were added for incubation for 15-30 min, protected from light, and finally analyzed on the flow cytometer.
`O=C(Nc1ccc(-c2cncs2)cc1)c1cc(C(=O)c2ccccc2C(F)(F)F)c[nH]1` [Compound 29] was tested, and the AML cell apoptosis was “apoptosis”.
